Legend:
[1] = Solubility of compound in phosphate buffered saline buffer; type: physicochemical
[2] = Selectivity ratio of IC50 for mouse NIH/3T3 cells to IC50 for trypomastigote form of Trypanosoma cruzi Tulahuen; type: ADME, cell-based; details: read-out: Ratio IC50
NIH3T3 [3] = assay: Cytotoxicity against mouse NIH/3T3 cells; type: cell-based; details: for IC50: Mus musculus, NIH3T3; for Activity: mouse, nih3t3
Trypanosoma cruzi = assay: Antitrypanosomal activity against trypomastigote form of Trypanosoma cruzi Tulahuen expressing beta-galactosidase infected in mouse NIH/3T3 cells assessed as inhibition of parasite replication after 4 days by betagalactosidase-based luminescence assay; type: functional, organism-based; details: NIH3T3, 96 h
NIH3T3 [4] = assay: Cytotoxicity against mouse NIH/3T3 cells up to 19.5 uM; type: cell-based
[5] = Chemical stability of the compound in phosphate buffered saline assessed as compound remaining after 48 hrs; type: physicochemical; details: read-out: Stability

With `CCN(CC)C(=O)C1CCCN(Cc2cccc(Cl)c2)C1` (centres undefined) the solubility [1] was over 100 µM, the selectivity ratio [2] was 16.6 and the IC50 (NIH3T3 [3]) was 164 µM. It also gave an IC50 (Trypanosoma cruzi) of 9.91 µM.

In the case of `COc1ccc(CCN(C)C(=O)C2CCCN(Cc3ccc(OC)c(OC)c3)C2)cc1OC` (centres undefined), the solubility [1] is reported as over 500 µM, the Activity (NIH3T3 [4]) is reported as “Non-toxic” and the Activity (NIH3T3 [3]) is reported as “Non-toxic”. The remaining at 48 h [5] was 84% and the IC50 (Trypanosoma cruzi) was 0.109 µM.

For `CCn1ncc(CN2CCCC(C(=O)c3cccc(OC(C)C)c3)C2)c1C` (centres undefined), the solubility [1] was over 200 µM, the Activity (NIH3T3 [3]) was “Non-toxic” and the IC50 (Trypanosoma cruzi) was 0.056 µM.

In the case of `Cc1cc(C)n(CC(=O)N2CCCC(C(=O)c3cccc(OC(C)C)c3)C2)n1` (centres undefined), the solubility [1] is reported as over 200 µM and the IC50 (Trypanosoma cruzi) is reported as 16.5 µM.

In the case of `CC(C)Oc1cccc(C(=O)C2CCCN(Cc3cnn(C(C)C)c3)C2)c1` (centres undefined), the solubility [1] is reported as over 200 µM, the Activity (NIH3T3 [3]) is reported as “Non-toxic” and the IC50 (Trypanosoma cruzi) is reported as 0.054 µM.

Compound `COc1ccc(CN2CCCC(C(=O)N3CCc4ccccc4C3)C2)cc1OC` (centres undefined) has a solubility [1] of over 100 µM, a selectivity ratio [2] of 11.8 and an IC50 (NIH3T3 [3]) of 41.7 µM. It also gave an IC50 (Trypanosoma cruzi) of 3.54 µM.

In the case of `CN(Cc1ccccc1)C(=O)C1CCCN(Cc2cccc(Cl)c2)C1` (centres undefined), the solubility [1] is reported as over 100 µM, the selectivity ratio [2] is reported as 123 and the IC50 (NIH3T3 [3]) is reported as 70.3 µM. For the same compound, the IC50 (Trypanosoma cruzi) was 0.57 µM.

With `CCCn1ncc(CN2CCCC(C(=O)c3cccc(OC(C)C)c3)C2)c1C` (centres undefined) the solubility [1] was over 500 µM, the Activity (NIH3T3 [4]) was “Non-toxic” and the Activity (NIH3T3 [3]) was “Non-toxic”. The IC50 (Trypanosoma cruzi) was 0.035 µM.

`COc1ccccc1CN1CCCC(C(=O)N(C)Cc2ccccc2)C1` (centres undefined) gave a solubility [1] of over 100 µM, a selectivity ratio [2] of 7.16 and an IC50 (NIH3T3 [3]) of 77.3 µM. For the same compound, the IC50 (Trypanosoma cruzi) was 10.8 µM.

With `COc1cc2c(cc1OC)CN(C(=O)C1CCCN(Cc3ccccc3)C1)CC2` (centres undefined) the solubility [1] was over 100 µM, the selectivity ratio [2] was 69.1 and the IC50 (NIH3T3 [3]) was 52.7 µM. It also gave an IC50 (Trypanosoma cruzi) of 0.763 µM.

In the case of `COc1ccc(CCN(C)C(=O)C2CCCN(Cc3ccccc3)C2)cc1OC` (centres undefined), the solubility [1] is reported as over 100 µM, the selectivity ratio [2] is reported as 33.6 and the IC50 (NIH3T3 [3]) is reported as 47 µM. It also gave an IC50 (Trypanosoma cruzi) of 1.4 µM.

Work on `CN(Cc1ccccc1)C(=O)C1CCCN(Cc2ccccc2C(F)(F)F)C1` (centres undefined) yielded a solubility [1] of over 100 µM, a selectivity ratio [2] of 3.98 and an IC50 (NIH3T3 [3]) of 63.3 µM. For the same compound, the IC50 (Trypanosoma cruzi) was 15.9 µM.

With `COc1ccc(CCN(C)C(=O)C2CCCN(Cc3ccc(F)cc3)C2)cc1OC` (centres undefined) the solubility [1] was over 100 µM, the selectivity ratio [2] was 14.9 and the IC50 (NIH3T3 [3]) was 64.7 µM. For the same compound, the IC50 (Trypanosoma cruzi) was 4.33 µM.

For `COc1ccc(CN2CCCC(C(=O)N3CCCC3)C2)c(OC)c1OC` (centres undefined), the solubility [1] was over 100 µM, the Activity (NIH3T3 [3]) was “Non-toxic” and the IC50 (Trypanosoma cruzi) was 1.01 µM.

For `CN(Cc1ccccc1)C(=O)C1CCCN(Cc2ccc(C(F)(F)F)cc2)C1` (centres undefined), the solubility [1] was over 100 µM, the selectivity ratio [2] was over 1000 and the IC50 (NIH3T3 [3]) was 61.6 µM. For the same compound, the IC50 (Trypanosoma cruzi) was 0.008 µM.

Work on `CN(Cc1ccccc1)C(=O)C1CCCN(Cc2ccc([N+](=O)[O-])cc2)C1` (centres undefined) yielded a solubility [1] of over 100 µM, a selectivity ratio [2] of 6.68 and an IC50 (NIH3T3 [3]) of 51 µM. For the same compound, the IC50 (Trypanosoma cruzi) was 7.63 µM.

For `CN(Cc1ccccc1)C(=O)C1CCCN(Cc2ccc(Br)cc2)C1` (centres undefined), the solubility [1] was over 100 µM, the selectivity ratio [2] was 24.6 and the IC50 (NIH3T3 [3]) was 74.3 µM. The IC50 (Trypanosoma cruzi) was 3.01 µM.

With `Cn1cc(CN2CCCC(C(=O)c3ccc(C(C)(C)C)cc3)C2)cn1` (centres undefined) the solubility [1] was over 200 µM and the IC50 (Trypanosoma cruzi) was 1.63 µM.

`COc1ccc(C(=O)C2CCCN(CC3CCCCC3)C2)cc1OC` (centres undefined) gave a solubility [1] of over 200 µM and an IC50 (Trypanosoma cruzi) of 1.57 µM.

For `COc1ccc(C(=O)C2CCCN(CCc3ccccc3)C2)cc1OC` (centres undefined), the solubility [1] was over 200 µM, the selectivity ratio [2] was 37.7 and the IC50 (NIH3T3 [3]) was 19.5 µM. It also gave an IC50 (Trypanosoma cruzi) of 0.518 µM.

`CCCn1cc(CN2CCCC(C(=O)c3cccc(C(F)(F)F)c3)C2)cn1` (centres undefined) showed a solubility [1] of over 200 µM and an IC50 (Trypanosoma cruzi) of 0.25 µM.

From ChEMBL document CHEMBL1921698, “Identification of small-molecule inhibitors of Trypansoma cruzi replication” (Bioorg Med Chem Lett, 2011)
